Laboratory results published in US7122576B2, “Carbamate compounds for use in preventing or treating bipolar disorder” (priority 2001, dated 2006).

Test system: hippocampal kindled rats
Test: Hippocampal kindled rat model
Assay type: in vivo, Sprague-Dawley rats
Parameters: After-Discharge Threshold: unit not given here
Conditions: for Mean Seizure Score: seizure score scale 1-5
Procedure: Hippocampal Kindled Rat Model
In the hippocampal kindling model (Lothman E W, et al., Epilepsy Res., 1988, 2(6) 367–79), adult male Sprague-Dawley rats are surgically implanted with bipolar electrodes. Seizure score is assessed as follows: (1) mouth and facial movements; (2) above symptoms plus head nodding; (3) above symptoms plus forelimb clonus; (4) above symptoms plus rearing; and (5) above symptoms plus falling.

[1] = 50 mg/kg intraperitoneally, n=8
[2] = 100 mg/kg intraperitoneally, n=8
[3] = 200 mg/kg intraperitoneally, n=8
[4] = 300 mg/kg intraperitoneally, 0.25 hr after dose, n=2
[5] = 300 mg/kg intraperitoneally, 1 hr after dose, n=2
[6] = 300 mg/kg intraperitoneally, 2 hr after dose, n=2
[7] = 300 mg/kg intraperitoneally, 4 hr after dose, n=2

NC(=O)OC[C@H](OC(N)=O)c1ccccc1Cl [enantiomer of Formula (Ib)]
toxicity of dose (50 mg/kg intraperitoneally): nontoxic
% Protected [1]: 12.50%
After-Discharge Duration [1]: 75.88 s
Mean Seizure Score [1]: 3.75
effect on after-discharge threshold and duration (50 mg/kg intraperitoneally, n=8 per group, over approximately a 3 hour time period): time-dependent reduction in after-discharge threshold and duration
% Protected [2]: 33.33%
After-Discharge Duration [2]: 53.17 s
Mean Seizure Score [2]: 3
% Protected [3]: 87.50%
After-Discharge Duration [3]: 42 s
Mean Seizure Score [3]: 1.63
toxicity of dose (300 mg/kg intraperitoneally): nontoxic
After-Discharge Duration [4]: 44 s
After-Discharge Threshold [4]: 105
Mean Seizure Score [4]: 2.5
After-Discharge Duration [5]: 50 s
After-Discharge Threshold [5]: >200
Mean Seizure Score [5]: 1.5
After-Discharge Duration [6]: 53 s
After-Discharge Threshold [6]: >200
Mean Seizure Score [6]: 1.5
After-Discharge Duration [7]: 111 s
After-Discharge Threshold [7]: 200
Mean Seizure Score [7]: 2.5
effect against the expression of Stage 5 seizures (300 mg/kg intraperitoneally, n=2, over a 4 hour time period): effective
ED50 (Rattus norvegicus, ip, dose range 50 to 200 mg/kg, intraperitoneally, 95% confidence interval 67.9 to 189.8 mg/kg, read-out: calculated ED50 value for reduction of the seizure score from 5 to 3 or less): 112 mg/kg
anti-kindling effects (hippocampal-kindled rat model): potent anti-kindling effects
